For one experiment, the system named is T. gondii. Nature of the experiment: Anti-toxoplasma screening, luciferase-expressing T. gondii (TgLuc+) in HFF cells, luminescence. The format is cell-based. Particulars: for inhibition at 10 µM: 48 h, primary screen, TgLuc+ tachyzoites in HFF cells, 2 days. As to the method:
(§1) • a) Anti-malarial screening: Plasmodium falciparum (3D7; Malaria Research and Reference Reagent Resource Center ID NO: MRA-102) is cultured in the laboratory as per standard protocols [Moll et. al. 2008]. Briefly, P. falciparum is cultured using 2% hematocrit washed RBCs, separated from freshly collected human blood, in RPMI media containing glutamine, sodium bicarbonate and antibiotics. Parasites are routinely synchronized using 5% sorbitol treatment. Anti-malarial screens are carried out in two stages: 1) a primary screen at a fixed concentration of 10 μM to find out % inhibition of growth; and 2) a dose assay for finding out the IC50 of hits identified from the primary screen. In both assays the following steps are followed. 200 μL's of the diluted parasite culture (2% parasitemia and 2% hematocrit; at late ring stage), is added to each well in a 96 well plate pre-seeded with the compound of interest at the required concentration of 10 μM. The master stocks and dilutions of the compounds are prepared in cell culture grade DMSO. NOTE: DMSO only treatment control is done and the results are used for normalizing the data obtained from compound treatment. All compounds are plated in triplicates. Each 96 well plate also includes negative control (compound untreated culture) and positive control (standard anti-malarial treated culture). Standard anti-malarials used are chloroquine, artemisinine and atovaquone, each at 1 μM concentration. After plating, the culture is incubated in standard growth condition for 60 hours, after which the cultures are processed for testing the effect of compounds on parasite growth using SybrGreen staining and fluorescence measurements at 520 nm emission following excitation at 498 nm. Since only the parasites have DNA (as RBCs are devoid of nucleus), the SybrGreen signal is a direct indictor of parasite density in respective samples. Results are used to quantifying relative parasite growth (or conversely % inhibition of growth) in untreated, standard anti-malarial treated and test molecules treated P. falciparum cultures. Compounds showing greater than 80% reduction in parasitemia are selected from this primary screening for carrying out dose response analysis using the respective test molecules from 10 μM to 1 nM dilution series. Data from this experiment is used for the calculation of IC50 values for the respective test molecules. • b) Anti-toxoplasma screening: For screening bioactivity of test molecules against T. gondii, a transgenic line of the parasite expressing the luciferase gene is used. The parental parasite used to generate the TgLuc+ strain is a Type I (RH) virulent strain (ATCC reference 50174D), which can also be used for in vivo studies in mice, if needed. The tachyzoite stage of the parasites are routinely cultured in the laboratory using standard protocols [Roos et al., 1994. In brief, a confluent monolayer of Human Foreskin Fibroblast (HFF; ATCC reference SCRS-1041) cells in culture are used as the host cells for infection with tachyzoite stage T. gondii. The culture media used to grow parasites is standard complete DMEM (Gibco BRL, USA) containing glucose (5.5 mM), glutamine (2 mM), Hepes (25 mM) and 1% dialyzed bovine fetal calf serum (Gibco BRL, USA). For bioactivity assays, the HFF cells are grown in 96 well plates and each well is infected with 1×10^4 TgLuc+ parasitesin the presence of 10 μM of test molecules (in primary screens) in a total volume of 200 μL. After 2 days of incubation and growth in a 37° C. incubator maintaining 5% CO2, the 96 well plates are processed for luminescence measurements using the reagents in the luciferase assay kit (Promega, USA). […]

Experiment [1] has as its system Plasmodium falciparum (3D7). Nature of the experiment: Anti-malarial screening, P. falciparum 3D7 growth in human RBC culture, SybrGreen fluorescence. Format: cell-based. Particulars: for inhibition at 10 µM: primary screen, 3D7, 60 hours; for EC50: dose response, 10 μM to 1 nM dilution series, 3D7. The method, then:
as §1

The term inhibition denotes the percentage by which the read-out fell short of the control. By EC50 is commonly meant the concentration at which the effect is half-maximal. As for `C[Si]1(C)CCN(Cc2ccc(-c3cc(C(=O)NCCN4CCCC4)c4cc(F)ccc4n3)cc2)CC1` [NDS 100950, 2-(4-((4,4-dimethyl-1,4-azasilinan-1-yl)methyl)phenyl)-6-fluoro-N-(2-(pyrrolidin-1-yl)ethyl)quinoline-4-carboxamide], the inhibition at 10 µM was 95.2% in the experiment on T. gondii and 95.7% in experiment [1]. Further, the EC50 with T. gondii (HFF, dose response, 10 μM to 1 nM dilution series) was found to be 3940 nM; in experiment [1], 60 nM.

On to `C[Si]1(C)CCN(CCNC(=O)c2cc(-c3ccc(CN4CCOCC4)cc3)nc3ccc(F)cc23)CC1` [NDS 100951, N-(2-(4,4-dimethyl-1,4-azasilinan-1-yl)ethyl)-6-fluoro-2-(4-(morpholinomethyl)phenyl)quinoline-4-carboxamide], for which the inhibition at 10 µM in the experiment on T. gondii was 21.8%. In addition, in experiment [1], the inhibition at 10 µM turned out to be 93.6% and the EC50 stood at 50 nM.

With `C[Si]1(C)CCN(C(=O)c2cc(-c3ccc(CN4CCOCC4)cc3)nc3ccc(F)cc23)CC1` [NDS 101006, (4,4-dimethyl-1,4-azasilinan-1-yl)(6-fluoro-2-(4-(morpholinomethyl)phenyl)quinolin-4-yl)methanone], the values for the inhibition at 10 µM (in the experiment with T. gondii; in experiment [1]) were 0% and 1.87%, respectively.

Regarding `C[Si]1(C)CCN(Cc2ccc(-c3cc(C(=O)N4CCOCC4)c4cc(F)ccc4n3)cc2)CC1` [NDS 101007, (2-(4-((4,4-dimethyl-1,4-azasilinan-1-yl)methyl)phenyl)-6-fluoroquinolin-4-yl)(morpholino)methanone], the results for the inhibition at 10 µM (in the experiment with T. gondii; in experiment [1]) were 3% and 2.79%, respectively.

With `C[Si]1(C)CCN(Cc2ccc(-c3cc(C(=O)NCCN4CCOCC4)c4cc(F)ccc4n3)cc2)CC1` [NDS 101008, 2-(4-((4,4-dimethyl-1,4-azasilinan-1-yl)methyl)phenyl)-6-fluoro-N-(2-morpholinoethyl)quinoline-4-carboxamide], the inhibition at 10 µM in the experiment with T. gondii amounted to 3%; in experiment [1] it was 95.9%. In addition, the EC50 in experiment [1] was 1260 nM.

As for `C[Si]1(C)CCN(Cc2ccc(-c3cc(C(=O)Nc4ccccn4)c4cc(F)ccc4n3)cc2)CC1` [NDS 101009, 2-(4-((4,4-dimethyl-1,4-azasilinan-1-yl)methyl)phenyl)-6-fluoro-N-(pyridin-2-yl)quinoline-4-carboxamide], the inhibition at 10 µM in the experiment on T. gondii was 31%. Further, in experiment [1], the inhibition at 10 µM was determined as 97.1% and the half-maximal effective concentration (EC50) worked out at 810 nM.

As to `C[Si](C)(C)CCNC(=O)c1cc(-c2ccc(CN3CCOCC3)cc2)nc2ccc(F)cc12` [NDS 101037, 6-fluoro-2-(4-(morpholinomethyl)phenyl)-N-(2-(trimethylsilyl)ethyl)quinoline-4-carboxamide], the inhibition at 10 µM came to 45% in the experiment on T. gondii and 9.16% in experiment [1].

Consider `C[Si]1(C)CCN(Cc2ccc(-c3cc(C(=O)NCCN4CCCCC4)c4cc(F)ccc4n3)cc2)CC1` [NDS 101074, 2-(4-((4,4-dimethyl-1,4-azasilinan-1-yl)methyl)phenyl)-6-fluoro-N-(2-(piperidin-1-yl)ethyl)quinoline-4-carboxamide], for which, in experiment [1], the inhibition at 10 µM came to 78.8% and the 50% effective concentration (EC50) stood at 112 nM.

As for `CN1CCN(CCNC(=O)c2cc(-c3ccc(CN4CC[Si](C)(C)CC4)cc3)nc3ccc(F)cc23)CC1` [NDS 101075, 2-(4-((4,4-dimethyl-1,4-azasilinan-1-yl)methyl)phenyl)-6-fluoro-N-(2-(4-methylpiperazin-1-yl)ethyl)quinoline-4-carboxamide], in experiment [1], the inhibition at 10 µM was determined as 95.2% and the concentration giving a half-maximal response (EC50) was 403 nM.

For the molecule `C[Si]1(C)CCN(Cc2ccc(-c3cc(C(=O)NCCO)c4cc(F)ccc4n3)cc2)CC1` [NDS 101076, 2-(4-((4,4-dimethyl-1,4-azasilinan-1-yl)methyl)phenyl)-6-fluoro-N-(2-hydroxyethyl)quinoline-4-carboxamide], in experiment [1], the inhibition at 10 µM stood at 81.4% and the EC50 was determined as 6120 nM.

In the case of `C[Si]1(C)CCN(Cc2ccc(-c3cc(C(=O)NCCN4CCSCC4)c4cc(F)ccc4n3)cc2)CC1` [NDS 101077, 2-(4-((4,4-dimethyl-1,4-azasilinan-1-yl)methyl)phenyl)-6-fluoro-N-(2-thiomorpholinoethyl)quinoline-4-carboxamide], in experiment [1], the inhibition at 10 µM is 95.5% and the concentration for a half-maximal effect (EC50) stood at 950 nM.
